Experimental data published in patent publication US9573954B2, “Pyrazolopyrimidine compounds” (University Health Network, priority 2012, dated 2017).
Like-named read-outs stand apart in the source and are kept apart here.

Key:
[1] = tested on: colon cancer cells (HCT116); test: Cancer cell line growth inhibition, Sulforhodamine B assay, HCT116; assay type: cell-based; conditions: read-out: Cancer Cell Line GI50 Range HCT116
Protocol: (§1) Breast cancer cells (MDA-MB-231 and MDA-MB-468), colon cancer cells (HCT116) and ovarian cancer cells (PA-1 and OVCAR-3) were seeded (1000 to 4000 in 80 μl per well depending on the cell growth rate) into 96 well plates 24 hours before compound overlay. Compounds were prepared as 10 mM stock solutions in 100% DMSO which were diluted with DMEM (Dulbecco's Modified Eagle's Medium) cell growth Medium (Invitrogen, Burlington, ON, Canada) containing 10% FBS (Fetal Bovine Serum) to concentrations ranging from 50 nM to 250 μM. Aliquots (20 μl) from each concentration were overlaid to 80 μl of the pre-seeded cells in the 96 well plates to make final concentrations of 10 nM to 50 μM. The cells were cultured for 5 days before the Sulforhodamine B assay (SRB) was performed to determine the compound's cell growth inhibition activity.
(§2) Sulforhodamine B (purchased from Sigma, Oakville, ON, Canada) is a water-soluble dye that binds to the basic amino acids of the cellular proteins. Thus, colorimetric measurement of the bound dye provides an estimate of the total protein mass that is related to the cell number. the cells are fixed in situ by gently aspirating off the culture media and adding 50 μl ice cold 10% Trichloroacetic Acid (TCA) per well and incubate at 4° C. for 30-60 min, The plates are washed with H2O five times and allowed to air dry for 5 min. Addition of 50 μl 0.4% (w/v) SRB solution in 1% (v/v) acetic acid to each well and incubation for 30 min at RT completes the staining reaction. Following staining, plates are washed four times with 1% acetic acid to remove unbound dye and then allowed to air dry for 5 min. The stain is solubilized with 100 μl of 10 mM Tris pH 10.5 per well. Absorbance is read at 570 nm.
(§3) The percentage (%) of relative growth inhibition was calculated by comparing to DMSO treated only cells (100%). GI50's were determined for compounds with cytotoxic activity. The GI50 was calculated using GraphPad PRISM software (GraphPad Software, Inc., San Diego, Calif., USA).
(§4) In Table 1 below, GI50 value ranges for compound examples against breast cancer cell lines (MDA-MB-468), colon cancer cell lines (HCT116) and ovarian cancer cell lines (PA-1) are given.
In Table 2 below, GI50 value ranges for compound examples against breast cancer cell lines (MDA-MB-231), colon cancer cell lines (HCT116) and ovarian cancer cell lines (PA-1) are given.
(§5) In Table 3 below, GI50 value ranges for compound examples against breast cancer cell lines (MDA-MB-468), colon cancer cell lines (HCT116) and ovarian cancer cell lines (OVCAR-3) are given.

[2] = tested on: ovarian cancer cells (OVCAR-3); test: Cancer cell line growth inhibition, Sulforhodamine B assay, OVCAR-3; assay type: cell-based; conditions: read-out: Cancer Cell Line GI50 Range OVCAR-3
Protocol: as §1, §2, §3, §5

[3] = tested on: breast cancer cells (MDA-MB-468); test: Cancer cell line growth inhibition, Sulforhodamine B assay, MDA-MB-468; assay type: cell-based; conditions: read-out: Cancer Cell Line GI50 Range MDA-MB-468
Protocol: as §1, §2, §3, §4, §5

human TTK = biological target: T1, human TTK (Homo sapiens, UniProt P33981); test: TTK inhibition assay (indirect ELISA); assay type: biochemical; conditions: 100 μM ATP; read-out: TTK IC50 Range
T1 construct: Active TTK was purchased from Invitrogen as an amino terminal GST fusion of full length human TTK; purchased Invitrogen
T1 sequence (P33981 1-857): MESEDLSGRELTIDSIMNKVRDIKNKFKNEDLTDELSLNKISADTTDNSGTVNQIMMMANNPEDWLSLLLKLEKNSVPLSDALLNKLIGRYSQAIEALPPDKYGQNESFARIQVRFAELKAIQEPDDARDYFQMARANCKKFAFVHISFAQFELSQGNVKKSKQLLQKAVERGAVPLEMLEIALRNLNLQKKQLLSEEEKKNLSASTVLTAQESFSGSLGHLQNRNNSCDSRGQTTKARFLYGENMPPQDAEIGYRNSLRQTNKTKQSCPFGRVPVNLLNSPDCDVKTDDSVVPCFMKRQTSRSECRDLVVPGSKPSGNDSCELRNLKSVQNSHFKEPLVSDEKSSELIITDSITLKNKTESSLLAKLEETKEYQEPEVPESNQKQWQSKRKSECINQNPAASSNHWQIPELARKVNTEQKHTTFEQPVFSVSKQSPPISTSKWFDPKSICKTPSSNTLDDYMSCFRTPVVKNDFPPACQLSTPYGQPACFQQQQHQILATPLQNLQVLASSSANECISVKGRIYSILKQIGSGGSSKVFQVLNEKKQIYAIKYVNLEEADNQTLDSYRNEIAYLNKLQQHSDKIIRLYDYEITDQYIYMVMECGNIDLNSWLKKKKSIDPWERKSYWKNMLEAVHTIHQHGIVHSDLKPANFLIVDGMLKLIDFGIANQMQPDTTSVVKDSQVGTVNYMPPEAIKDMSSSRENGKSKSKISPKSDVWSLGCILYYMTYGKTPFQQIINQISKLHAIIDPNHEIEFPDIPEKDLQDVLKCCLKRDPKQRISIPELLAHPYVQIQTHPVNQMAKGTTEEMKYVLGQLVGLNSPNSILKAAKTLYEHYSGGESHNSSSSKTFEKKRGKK
Protocol: Active TTK was purchased from Invitrogen as an amino terminal GST fusion of full length human TTK.
TTK activity was measured using an indirect ELISA detection system.
Compounds were pre-incubated in the presence of enzyme for 5 minutes prior to addition of ATP and the activity remaining quantified using the above described activity assay. The % Inhibition of a compound was determined using the following formula; % Inhibition=100×(1−(experimental value−background value)/(high activity control−background value)). The IC50 value was determined using a non-linear 4 point logistic curve fit (XLfit4, IDBS) with the formula; (A+(B/(1+((x/C)^D)))), where A=background value, B=range, C=inflection point, D=curve fit parameter.

[4] = Homo sapiens, HCT-116, HCT116 colon cancer cell line
[5] = Homo sapiens, OVCAR-3, OVCAR-3 ovarian cancer cell line
[6] = Homo sapiens, MDA-MB-468, MDA-MB-468 breast cancer cell line

SMILES	GI50 [1, 4] [nM]	GI50 [2, 5] [nM]	GI50 [3, 6] [nM]	IC50 (human TTK) [nM]	GI50 ([1]; HCT116 colon cancer cell line) [nM]	GI50 ([2]; OVCAR-3 ovarian cancer cell line) [nM]	GI50 ([3]; MDA-MB-468 breast cancer cell line) [nM]
Cc1cc(-c2cnn3c(NCC4CCOCC4)cc(NCCN4CCOCC4)nc23)ccc1C(=O)NC1CC1 [Example C114]	> 500	> 500	> 500	< 100	–	–	–
COc1cccc(Oc2cc(NCCN3CCOCC3)n3ncc(-c4ccc(C(=O)NC5CC5)c(C)c4)c3n2)c1 [Example C85]	100 to 500	100 to 500	100 to 500	< 100	–	–	–
Cc1cc(-c2cnn3c(NCCN4CCOCC4)cc(Oc4cccc(Cl)c4)nc23)ccc1C(=O)NC1CC1 [Example C97]	≤ 100	100 to 500	100 to 500	< 100	–	–	–
Cc1cc(-c2cnn3c(NCCN4CCC(O)CC4)cc(N[C@H]4CCCC[C@H]4O)nc23)ccc1C(=O)NC1CC1 [Example C183]	> 500	> 500	100 to 500	< 100	–	–	–
Cc1cc(-c2cnn3c(NCC4CCOCC4)cc(N[C@H]4COCC[C@@H]4O)nc23)ccc1C(=O)NC1CC1 [Example C79]	> 500	> 500	> 500	< 100	–	–	–
O=C(NC1CC1)c1ccc(-c2cnn3c(NCCN4CCOCC4)cc(Oc4ccccc4)nc23)cc1Cl [Example C105]	≤ 100	≤ 100	≤ 100	< 100	–	–	–
Cc1cc(-c2cnn3c(NC[C@H]4CCCO4)cc(NC4CCCC4)nc23)ccc1C(=O)NC1CC1 [Example C72]	–	–	–	< 100	≤ 100	100 to 500	≤ 100
Cc1cc(-c2cnn3c(NCC4CCOCC4)cc(N4CC[C@H](O)C4)nc23)ccc1C(=O)NC1CC1 [Example C143]	> 500	> 500	> 500	100 to 500	–	–	–
Cc1cc(-c2cnn3c(NCCN4CCOCC4)cc(NC4CCCC4)nc23)ccc1C(=O)NC1CC1 [Example C77]	100 to 500	100 to 500	100 to 500	< 100	–	–	–
Cc1cc(-c2cnn3c(NCC4(O)CCOCC4)cc(Oc4cccnc4)nc23)ccc1C(=O)NC1CC1 [Example C98]	100 to 500	> 500	> 500	< 100	–	–	–
Cc1cc(-c2cnn3c(NCC4(O)CCOCC4)cc(NC4CCCC4)nc23)ccc1C(=O)NC1CC1 [Example C95]	100 to 500	> 500	> 500	< 100	–	–	–
Cc1cc(-c2cnn3c(NCC4CCOCC4)cc(-c4ccnn4C)nc23)ccc1C(=O)NC1CC1 [Example C151]	≤ 100	100 to 500	100 to 500	< 100	–	–	–
Cc1cc(-c2cnn3c(NCCN4CCCCC4)cc(Oc4cccc(F)c4)nc23)ccc1C(=O)NC1CC1 [Example C180]	≤ 100	100 to 500	100 to 500	< 100	–	–	–
Cc1cc(-c2cnn3c(NCC4(F)CCN(C)CC4)cc(OC4CCCC4)nc23)ccc1C(=O)NC1CC1 [Example C174]	100 to 500	> 500	> 500	< 100	–	–	–
Cc1cc(-c2cnn3c(NCC4CCOCC4)cc(N[C@@H]4CCCC[C@H]4O)nc23)ccc1C(=O)NC1CC1 [Example C124]	100 to 500	100 to 500	100 to 500	< 100	–	–	–
CCO[C@H]1COC[C@@H]1Nc1cc(NCC2CCOCC2)n2ncc(-c3ccc(C(=O)NC4CC4)c(C)c3)c2n1 [Example C90]	100 to 500	> 500	100 to 500	< 100	–	–	–
Cc1cc(-c2cnn3c(NCC4CCOCC4)cc(NC4CC5(COC5)C4)nc23)ccc1C(=O)NC1CC1 [Example C141]	≤ 100	100 to 500	100 to 500	< 100	–	–	–
O=C(NC1CC1)c1ccc(-c2cnn3c(NCCN4CCOCC4)cc(Oc4cccc(F)c4)nc23)cc1Cl [Example C34]	≤ 100	≤ 100	≤ 100	< 100	–	–	–
Cc1cc(-c2cnn3c(NC[C@H]4C[C@@H](O)C4)cc(NC4CCOCC4)nc23)ccc1C(=O)NC1CC1 [Example C156]	100 to 500	100 to 500	100 to 500	< 100	–	–	–
Cc1cc(-c2cnn3c(NC[C@H]4C[C@](C)(O)C4)cc(NC4CCCC4)nc23)ccc1C(=O)NC1CC1 [Example C186]	≤ 100	100 to 500	100 to 500	< 100	–	–	–
Cc1cc(-c2cnn3c(NCC4CC4)cc(NC4(CO)CCCC4)nc23)ccc1C(=O)NC1CC1 [Example C148]	100 to 500	> 500	100 to 500	< 100	–	–	–
Cc1cc(-c2cnn3c(NCC4CCOCC4)cc(N[C@@H]4CCOC4)nc23)ccc1C(=O)NC1CC1 [Example C136]	≤ 100	100 to 500	≤ 100	< 100	–	–	–
